According to patent publication US10188634B2, “3-(3H-imidazo[4,5-C]pyridin-2-yl)-1 H-pyrazolo[4,3-B]pyridines and therapeutic uses thereof” (Samumed, LLC, priority 2015, dated 2019):

How the values were obtained:
Format in all cases: cell-based
[1] = test system: Wnt activity (Sp5-Luc reporter, human Sp5 promoter with eight TCF/LEF binding sites) in SW480 colon carcinoma cells; assay: Screening assay for Wnt activity: Sp5-Luc reporter gene assay in SW480 cells; details: 10-point dose-response starting from 10 μM, overnight incubation
Description: The screening assay for Wnt activity is described as follows. Reporter cell lines can be generated by stably transducing cancer cell lines (e.g., colon cancer) or primary cells (e.g., IEC-6 intestinal cells) with a lentiviral construct that includes a Wnt-responsive promoter driving expression of the firefly luciferase gene.
SW480 colon carcinoma cells were transduced with a lentiviral vector expressing luciferase with a human Sp5 promoter consisting of a sequence of eight TCF/LEF binding sites. SW480 cells stably expressing the Sp5-Luc reporter gene and a hygromycin resistance gene were selected by treatment with 150 μg/mL of hygromycin for 7 days. These stably transduced SW480 cells were expanded in cell culture and used for all further screening activities. Each compound was dissolved in DMSO as a 10 mM stock and used to prepare compound source plates. Serial dilution (1:3, 10-point dose-response curves starting from 10 μM) and compound transfer was performed using the ECHO 550 (Labcyte, Sunnyvale, Calif.) into 384-well white solid bottom assay plates (Greiner Bio-One) with appropriate DMSO backfill for a final DMSO concentration of 0.1%. For Sp5-Luc reporter gene assays, the cells were plated at 4,000 cells/well in 384-well plates with medium containing 1% fetal bovine serum and incubated overnight at 37° C. and 5% CO2. Following incubation, 20 μl of BrightGlo luminescence reagent (Promega) was added to each well of the 384-well assay plates. The plates were placed on an orbital shaker for 2 min and then luminescence was quantified using the Envision (Perkin Elmer) plate reader. Readings were normalized to DMSO only treated cells, and normalized activities were utilized for EC50 calculations using the dose-response log (inhibitor) vs. response -variable slope (four parameters) nonlinear regression feature available in GraphPad Prism 5.0 (or Dotmatics). For EC50 of >10 μM, the percent inhibition at 10 μM is provided.

SW480 colon cancer cells = assay: Cell viability assay (CellTiter-Blue) in SW480 colon cancer cells; details: Homo sapiens, 96 h, four days incubation, CellTiter-Blue cell viability
Description: Representative compounds were screened using the following assay procedure to assess the effect on cell viability as described below.
Each compound was dissolved in DMSO as a 10 mM stock and used to prepare compound source plates. Serial dilution (1:3, 8-point dose-response curves from 10 μM to 0.004 μM) and compound transfer was performed using the ECHO 550 (Labcyte, Sunnyvale, Calif.) into 96-well clear bottom, black-walled plates (Corning-Costar).
Approximately 2×10^3 SW480 colon cancer cells were seeded into each well and allowed to incubate in the presence or absence of compound for four days at 37° C./5% CO2. Eight replicates of DMSO-treated cells served as controls and cells treated with compound were performed in duplicate.
After incubation, 20 μL of CellTiter-Blue (Promega) was added to each well allowed to incubate for approximately 3 hours. This reagent was a buffered solution which contains resazurin, metabolically active cells were able to reduce rezarurin (blue) into resorufin (pink) which was highly fluorescent. This measured fluorescence was used as a readout for cell viability.
After incubation, the plates were read at Ex 560 nm Em 590 nm (Cytation 3, BioTek). Dose-response curves were generated and EC50 concentration values were calculated using non-linear regression curve fit in the GraphPad Prism (San Diego, Calif.) or Dotmatics' Studies Software (Bishops Stortford, UK). For EC50 of >10 μM, the percent inhibition at 10 μM is provided.

[2] = test system: LL29 cells (primary human fibroblasts derived from IPF patients) treated with TGF-β1, α-smooth muscle actin; assay: Inhibition of the fibrotic process: αSMA staining in TGF-β1 treated primary human fibroblasts from IPF patients (LL29 cells); details: Fibroblast, 96 h, LL29 cells treated with TGF-β1 (20 ng/mL), 4 days
Description: Representative compounds were screened using primary human fibroblasts (derived from IPF patients) treated with TGF-β1 to determine their ability to inhibit the fibrotic process.
Human Fibroblast Cell Culture: Primary human fibroblasts derived from IPF patients (LL29 cells) [^1Xiaoqiu Liu, et.al., “Fibrotic Lung Fibroblasts Show Blunted Inhibition by cAMP Due to Deficient cAMP Response Element-Binding Protein Phosphorylation”, Journal of Pharmacology and Experimental Therapeutics (2005), 315(2), 678-687; ^2Watts, K. L., et.al., “RhoA signaling modulates cyclin D1 expression in human lung fibroblasts; implications for idiopathic pulmonary fibrosis”, Respiratory Research (2006), 7(1), 88] were obtained from American Type Culture Collection (ATCC) and expanded in F12 medium supplemented with 15% Fetal Bovine Serum and Penicillin/Streptomycin.
Compound Screening: Each compound was dissolved in DMSO as a 10 mM stock and used to prepare compound source plates. […] LL29 cells are plated at 1,500 cells/well in 80 μL/well F12 medium supplemented with 1% Fetal Bovine Serum. One hour after addition of the cells, TGF-β1 (Peprotech; 20 ng/mL) was added to the plates to induce fibrosis (ref. 1 and 2 above). Wells treated with TGF-β1 and containing DMSO were used as controls. Cells were incubated at 37° C. and 5% CO2 for 4 days. Following incubation for 4 days, SYTOX green nucleic acid stain (Life Technologies [Thermo Fisher Scientific]) was added to the wells at a final concentration of 1 μM and incubated at room temperature for 30 min. Cells were then fixed using 4% formaldehyde (Electron Microscopy Sciences), washed 3 times with PBS followed by blocking and permeabilization using 3% Bovine Serum Albumin (BSA; Sigma) and 0.3% Triton X-100 (Sigma) in PBS. Cells were then stained with antibody specific to α-smooth muscle actin (αSMA; Abcam) (ref. 1 and 2 above) in 3% Bovine Serum Albumin (BSA; Sigma) and 0.3% Triton X-100 (Sigma) in PBS, and incubated overnight at 4° C. Cells were then washed 3 times with PBS, followed by incubation with Alexa Flor-647 conjugated secondary antibody (Life Technologies [Thermo Fisher Scientific]) and DAPI at room temperature for 1 hour. Cells were then washed 3 times with PBS and plates were sealed for imaging. αSMA staining was imaged by excitation at 630 nm and emission at 665 nm and quantified using the Compartmental Analysis program on the CellInsight CX5 (Thermo Scientific). Dead or apoptotic cells were excluded from analysis based on positive SYTOX green staining. % of total cells positive for αSMA were counted in each well and normalized to the average of 11 wells treated with TGF-β1 on the same plate using Dotmatics' Studies Software. The normalized averages (fold change over untreated) of 3 replicate wells for each compound concentration were used to create dose-responses curves and EC50 values were calculated using non-linear regression curve fit in the Dotmatics' Studies Software. For EC50 of >10 μM, the percent inhibition at 10 μM is provided.

IL-6 in THP-1 cells = assay: Inhibition of IL-6 in LPS-stimulated THP-1 human monocyte cells (HTRF); details: IL-6 HTRF; for EC50: 500 ng/mL LPS, 22 hours; for inhibition at 10 µM: LPS, read-out: percent inhibition in brackets (given for EC50 >10 μM)
Description: Human Monocyte Cell Culture: Human monocyte cell line (THP-1 cells; Catalog # TIB-202, ATCC, Manassas, Va.) were cultured in Roswell Park Memorial Institute (RPMI) 1640 Medium (Catalog #21870-100, Buffalo, N.Y.) with 1% L-glutamine, 1% HEPES, 1% Sodium Pyruvate, 2% Sodium Bicarbonate supplemented with 100 units/mL penicillin, 50 μg/mL streptomycin, 2-mercaptoethanol (0.05 mM) [basal medium] and 10% fetal bovine serum (Catalog #16140089, Life Technologies, Carlsbad, Calif.) at 37° C. and 5% CO2.
Compound Screening: THP-1 cells were cultured in basal media with 1% FBS for 24 hours before the start of the assay. Each compound was dissolved in DMSO as a 10 mM stock and used to prepare compound source plates. Serial dilution (1:3, 10-point dose-response curves starting from 10 μM) and compound transfer was performed using the ECHO 550 (Labcyte, Sunnyvale, Calif.) into 384-well white low volume assay plates (Greiner Bio-One) with appropriate DMSO backfill for a final DMSO concentration of 0.1%. THP-1 cells were plated at 5000 cells/well in the 384-well plates and incubated at 37° C. for 2 h. 500 ng/mL of LPS was added after 2 hours and cells were incubated for another 22 hours at 37° C. Plates were spun in a centrifuge for 1 minute at […] and a mixture of anti-IL6 XL665, and anti-IL6 Cryptate diluted in reconstitution buffer (Cisbio Inc.) was added to each well. Following incubation for 3 hrs at room temperature, Homogeneous Time-Resolved Fluorescence (HTRF) was measured using the Envision (Perkin Elmer) at 665 nm and […]. The ratio of fluorescence at 665 nm to 620 nm was used as a readout for IL6 quantification. All samples were processed in duplicate. Readings were normalized to DMSO treated cells and normalized activities were utilized for EC50 calculations using the dose-response log (inhibitor) vs. response -variable slope (four parameters) nonlinear regression feature available in GraphPad Prism 5.0 (or Dotmatics). For EC50 of >10 μM, the percent inhibition at 10 μM is provided.

Fc1ccccc1-c1cncc2[nH]c(-c3n[nH]c4ccc(-c5cncc(CNCC6CCCC6)c5)nc34)nc12 [Compound 81, 1-Cyclopentyl-N-((5-(3-(7-(2-fluorophenyl)-3H-imidazo[4,5-c]pyridin-2-yl)-1H-pyrazolo[4,3-b]pyridin-5-yl)pyridin-3-yl)methyl)methanamine] gave an EC50 [1] of 1260 nM, an EC50 (SW480 colon cancer cells) of 1390 nM and an EC50 [2] of 1940 nM. The EC50 (IL-6 in THP-1 cells) was 3530 nM.
Work on O=C(Nc1cncc(-c2ccc3[nH]nc(-c4nc5c(N6CCCCC6)cncc5[nH]4)c3n2)c1)C1CC1 [Compound 188, N-(5-(3-(7-(Piperidin-1-yl)-3H-imidazo[4,5-c]pyridin-2-yl)-1H-pyrazolo[4,3-b]pyridin-5-yl)pyridin-3-yl)cyclopropanecarboxamide] yielded an EC50 [1] of 9700 nM, an EC50 (SW480 colon cancer cells) of 4420 nM and an EC50 [2] of 4940 nM. For the same molecule, the EC50 (IL-6 in THP-1 cells) was 1400 nM.
Molecule FC1(F)CCN(Cc2cncc(-c3ccc4[nH]nc(-c5nc6c(N7CCCCC7)cncc6[nH]5)c4n3)c2)C1 [Compound 194, 5-(5-((3,3-Difluoropyrrolidin-1-yl)methyl)pyridin-3-yl)-3-(7-(piperidin-1-yl)-3H-imidazo[4,5-c]pyridin-2-yl)-1H-pyrazolo[4,3-b]pyridine] has an EC50 [1] of 2330 nM, an EC50 (SW480 colon cancer cells) of 3590 nM and an EC50 [2] of 2710 nM. It also gave an EC50 (IL-6 in THP-1 cells) of 6550 nM.
c1ccc(CNCc2cncc(-c3ccc4[nH]nc(-c5nc6c(-c7ccsc7)cncc6[nH]5)c4n3)c2)cc1 [Compound 276, N-Benzyl-1-(5-(3-(7-(thiophen-3-yl)-3H-imidazo[4,5-c]pyridin-2-yl)-1H-pyrazolo[4,3-b]pyridin-5-yl)pyridin-3-yl)methanamine] showed an EC50 [1] of 3460 nM, an EC50 (SW480 colon cancer cells) of 1180 nM and an EC50 [2] of 7470 nM. For the same molecule, the EC50 (IL-6 in THP-1 cells) was > 10000 nM and the inhibition at 10 µM (IL-6 in THP-1 cells) was 39.9%.
CN(C)CCNc1cc(F)cc(-c2cncc3[nH]c(-c4n[nH]c5ccc(-c6cncc(CNCC7CCCC7)c6)nc45)nc23)c1 [Compound 445, N^1-(3-(2-(5-(5-(((Cyclopentylmethyl)amino)methyl)pyridin-3-yl)-1H-pyrazolo[4,3-b]pyridin-3-yl)-3H-imidazo[4,5-c]pyridin-7-yl)-5-fluorophenyl)-N^2,N^2-dimethylethane-1,2-diamine] showed an EC50 [1] of 9280 nM, an EC50 (SW480 colon cancer cells) of 8710 nM and an EC50 [2] of 4020 nM. The EC50 (IL-6 in THP-1 cells) was > 10000 nM and the inhibition at 10 µM (IL-6 in THP-1 cells) was 45.8%.
For CN(C)CCNc1cc(F)cc(-c2cncc3[nH]c(-c4n[nH]c5ccc(-c6ccccn6)nc45)nc23)c1 [Compound 448, N^1-(3-Fluoro-5-(2-(5-(pyridin-2-yl)-1H-pyrazolo[4,3-b]pyridin-3-yl)-3H-imidazo[4,5-c]pyridin-7-yl)phenyl)-N^2,N^2-dimethylethane-1,2-diamine], the EC50 [1] was 1710 nM, the EC50 (SW480 colon cancer cells) was 2140 nM and the EC50 [2] was 941 nM. The EC50 (IL-6 in THP-1 cells) was 1680 nM.
With Fc1cccc(-c2cncc3[nH]c(-c4n[nH]c5ccc(-c6cncc(OCCN7CCCC7)c6)nc45)nc23)c1 [Compound 486, 3-(7-(3-Fluorophenyl)-3H-imidazo[4,5-c]pyridin-2-yl)-5-(5-(2-(pyrrolidin-1-yl)ethoxy)pyridin-3-yl)-1H-pyrazolo[4,3-b]pyridine] the EC50 [1] was 3430 nM, the EC50 (SW480 colon cancer cells) was 9340 nM and the EC50 [2] was 2120 nM. The EC50 (IL-6 in THP-1 cells) was > 10000 nM and the inhibition at 10 µM (IL-6 in THP-1 cells) was 47.4%.
COc1cncc(-c2ccc3[nH]nc(-c4nc5c(N6CCCCC6)cncc5[nH]4)c3n2)c1 [Compound 584, 5-(5-Methoxylpyridin-3-yl)-3-(7-(piperidin-1-yl)-3H-imidazo[4,5-c]pyridin-2-yl)-1H-pyrazolo[4,3-b]pyridine] was tested, and the EC50 [1] was 3390 nM, the EC50 (SW480 colon cancer cells) was 2180 nM and the EC50 [2] was 1650 nM. The EC50 (IL-6 in THP-1 cells) was 44 nM.
Work on CN1CCN(c2cncc3[nH]c(-c4n[nH]c5ccc(-c6cncc(OC7CCCCC7)c6)nc45)nc23)CC1 [Compound 611, 5-(5-(Cyclohexyloxy)pyridin-3-yl)-3-(7-(4-methylpiperazin-1-yl)-3H-imidazo[4,5-c]pyridin-2-yl)-1H-pyrazolo[4,3-b]pyridine] yielded an EC50 [1] of 1920 nM, an EC50 (SW480 colon cancer cells) of 2540 nM and an EC50 [2] of 1330 nM. It also gave an EC50 (IL-6 in THP-1 cells) of 8780 nM.
